Assay results from the supplement of paper PMC11208160.
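Note: IS621 recombinase and bridge RNA in Escherichia coli cells.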

Assay: recombinant barcode read abundance after kanamycin selection (control-corrected) (log10(CPM+1)); higher = more efficient recombination; sequences stand for … in AGTGCAGAGAAAATCGGCCAGTTTTCTCTGCCTGCAGTCCGCATGCCGT…AGATTTATGCAGCGGACTGCCTTTCTCCCAAAGTGATAAACCGGACAGTATCATGGACCGGTTTTCCCGGTAATCCGTATTTGCAAGGTTGGTTTCACT; site = the 11-nt target
Procedure, shortened: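 In E. coli, a pooled library matched targets to IS621 bridge RNA target-binding loops and was introduced alongside a donor plasmid. Cells went onto chloramphenicol/ampicillin/kanamycin with 0.1 mM IPTG or onto chloramphenicol/ampicillin LB agar as control, in duplicate. Recombination efficiency, from recombinant-junction barcodes as counts per million, is averaged and control-corrected. It is reported as log10(CPM+1).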
In the case of “CGTTGTTCTTGGGTTCTAACCTGTTGCCT (site CGTTGATCTAG)”, the “recombinant barcode read abundance (log10)” value is reported as 0.0873. In the case of “CGTTGTTCTTGGGTTCTAACCTGTTGCCT (site CGTTGTTCTAG)”, the “recombinant barcode read abundance (log10)” value is reported as 0.163. In the case of “CTAAAAGCTTGGGTTCTAACCTGTTGCCA (site CTAAAAGCTTG)”, the “recombinant barcode read abundance (log10)” value is reported as 0.493. For “CTAAAAGCTTGGGTTCTAACCTGTTGCCA (site TACTCCTCTCC)”, the “recombinant barcode read abundance (log10)” value was 0.0219. With “CTAAAGTCTTGGGTTCTAACCTGTTGCAC (site CTAAAGTCTGG)” the “recombinant barcode read abundance (log10)” value was 0.0578. With “CTAAAGTCTTGGGTTCTAACCTGTTGCAC (site CTAAAGTCTGT)” the “recombinant barcode read abundance (log10)” value was 1.51. In the case of “CTAAAGTCTTGGGTTCTAACCTGTTGCCC (site CTAAAGTCTGG)”, the “recombinant barcode read abundance (log10)” value is reported as 0.4. For “CTAAAGTCTTGGGTTCTAACCTGTTGCCC (site CTAAAGTCTGT)”, the “recombinant barcode read abundance (log10)” value was 0.136. In the case of “CTAAATACTTGGGTTCTAACCTGTTGCTT (site CTAAATACTAA)”, the “recombinant barcode read abundance (log10)” value is reported as 0.383. In the case of “CTAAATACTTGGGTTCTAACCTGTTGCTT (site CTATATACTAA)”, the “recombinant barcode read abundance (log10)” value is reported as 0.107. For “CTAACCTCTTGGGTTCTAACCTGTTGCAT (site CTAACCTCTAT)”, the “recombinant barcode read abundance (log10)” value was 2.1. With “CTAACCTCTTGGGTTCTAACCTGTTGCAT (site CTACCCTCTAT)” the “recombinant barcode read abundance (log10)” value was 0.0596. With “CTAACCTCTTGGGTTCTAACCTGTTGCAT (site CTAGCCTCTAT)” the “recombinant barcode read abundance (log10)” value was 0.151. In the case of “CTAACCTCTTGGGTTCTAACCTGTTGCAT (site CTATCCTCTAT)”, the “recombinant barcode read abundance (log10)” value is reported as 0.0287. With “CTAACTACTTGGGTTCTAACCTGTTGCTT (site AGTTGGCCTCT)” the “recombinant barcode read abundance (log10)” value was 0.41. With “CTAACTACTTGGGTTCTAACCTGTTGCTT (site CTAACTACTAA)” the “recombinant barcode read abundance (log10)” value was 0.252. With “CTAACTCCTTGGGTTCTAACCTGTTGCCT (site ATACCTCCTAG)” the “recombinant barcode read abundance (log10)” value was 0.242. With “CTAACTCCTTGGGTTCTAACCTGTTGCCT (site CTAACTCCTAG)” the “recombinant barcode read abundance (log10)” value was 0.401. With “CTAACTCCTTGGGTTCTAACCTGTTGCTG (site CTAACTCCTCA)” the “recombinant barcode read abundance (log10)” value was 0.12. In the case of “CTAACTCCTTGGGTTCTAACCTGTTGCTG (site CTAACTGCTCC)”, the “recombinant barcode read abundance (log10)” value is reported as 0.524. In the case of “CTAACTGCTTGGGTTCTAACCTGTTGCGG (site CTAACTCCTCA)”, the “recombinant barcode read abundance (log10)” value is reported as 0.0417. For “CTAACTGCTTGGGTTCTAACCTGTTGCGG (site CTAACTGCTCC)”, the “recombinant barcode read abundance (log10)” value was 0.633. In the case of “CTAACTGCTTGGGTTCTAACCTGTTGCGT (site CTAACTGCTAC)”, the “recombinant barcode read abundance (log10)” value is reported as 0.96. In the case of “CTAACTGCTTGGGTTCTAACCTGTTGCGT (site TCCCAAACTGT)”, the “recombinant barcode read abundance (log10)” value is reported as 0.177. In the case of “CTAAGAACTTGGGTTCTAACCTGTTGCCT (site CTAAGAACTAA)”, the “recombinant barcode read abundance (log10)” value is reported as 0.0228. With “CTAAGAACTTGGGTTCTAACCTGTTGCCT (site CTAAGAACTAC)” the “recombinant barcode read abundance (log10)” value was 1.05. In the case of “CTAAGAACTTGGGTTCTAACCTGTTGCCT (site CTAAGAACTAG)”, the “recombinant barcode read abundance (log10)” value is reported as 0.604. In the case of “CTAAGAACTTGGGTTCTAACCTGTTGCCT (site CTAAGAACTAT)”, the “recombinant barcode read abundance (log10)” value is reported as 0. In the case of “CTAAGATCTTGGGTTCTAACCTGTTGCCT (site CAAAGATCTAG)”, the “recombinant barcode read abundance (log10)” value is reported as 0.0172. For “CTAAGATCTTGGGTTCTAACCTGTTGCCT (site CCAAGATCTAG)”, the “recombinant barcode read abundance (log10)” value was 0.119. For “CTAAGATCTTGGGTTCTAACCTGTTGCCT (site CGAAGATCTAG)”, the “recombinant barcode read abundance (log10)” value was 0.0614. For “CTAAGATCTTGGGTTCTAACCTGTTGCCT (site CTAAGATCTAG)”, the “recombinant barcode read abundance (log10)” value was 0.169. In the case of “CTAAGCTCTTGGGTTCTAACCTGTTGCTA (site CTAAGCTCTAA)”, the “recombinant barcode read abundance (log10)” value is reported as 0.0436. With “CTAAGCTCTTGGGTTCTAACCTGTTGCTA (site CTAAGCTCTCA)” the “recombinant barcode read abundance (log10)” value was 0.0617. In the case of “CTAAGCTCTTGGGTTCTAACCTGTTGCTA (site CTAAGCTCTGA)”, the “recombinant barcode read abundance (log10)” value is reported as 0.172. With “CTAAGCTCTTGGGTTCTAACCTGTTGCTA (site CTAAGCTCTTA)” the “recombinant barcode read abundance (log10)” value was 0.939. With “CTAAGGACTTGGGTTCTAACCTGTTGCTA (site CGAAGGACTTA)” the “recombinant barcode read abundance (log10)” value was 0.0114. For “CTAAGGACTTGGGTTCTAACCTGTTGCTA (site CTAAGGACTTA)”, the “recombinant barcode read abundance (log10)” value was 1.11. For “CTAAGGCCTTGGGTTCTAACCTGTTGCAT (site AAGTCCTCTCA)”, the “recombinant barcode read abundance (log10)” value was 0.428. For “CTAAGGCCTTGGGTTCTAACCTGTTGCAT (site CTAAGGCCTAT)”, the “recombinant barcode read abundance (log10)” value was 1.85. In the case of “CTAAGGGCTTGGGTTCTAACCTGTTGCTG (site CTAAGGACTAA)”, the “recombinant barcode read abundance (log10)” value is reported as 0.314. In the case of “CTAAGGGCTTGGGTTCTAACCTGTTGCTG (site CTAAGGGCTCA)”, the “recombinant barcode read abundance (log10)” value is reported as 0.772. With “CTAAGGTCTTGGGTTCTAACCTGTTGCGT (site CTAAGGTCTAA)” the “recombinant barcode read abundance (log10)” value was 0.31. In the case of “CTAAGGTCTTGGGTTCTAACCTGTTGCGT (site CTAAGGTCTAC)”, the “recombinant barcode read abundance (log10)” value is reported as 2.69. With “CTAAGGTCTTGGGTTCTAACCTGTTGCGT (site CTAAGGTCTAG)” the “recombinant barcode read abundance (log10)” value was 0.209. For “CTAAGGTCTTGGGTTCTAACCTGTTGCGT (site CTAAGGTCTAT)”, the “recombinant barcode read abundance (log10)” value was 1.9. For “CTAAGGTCTTGGGTTCTAACCTGTTGCTT (site CTAAGGTCTAA)”, the “recombinant barcode read abundance (log10)” value was 0.462. For “CTAAGGTCTTGGGTTCTAACCTGTTGCTT (site CTAAGGTCTAC)”, the “recombinant barcode read abundance (log10)” value was 0.132. In the case of “CTAAGGTCTTGGGTTCTAACCTGTTGCTT (site CTAAGGTCTAG)”, the “recombinant barcode read abundance (log10)” value is reported as 0.186. For “CTAAGGTCTTGGGTTCTAACCTGTTGCTT (site CTAAGGTCTAT)”, the “recombinant barcode read abundance (log10)” value was 0.886. In the case of “CTAAGTACTTGGGTTCTAACCTGTTGCAG (site CTAAGTACTCT)”, the “recombinant barcode read abundance (log10)” value is reported as 1.56. For “CTAAGTACTTGGGTTCTAACCTGTTGCAG (site CTAATTACTTT)”, the “recombinant barcode read abundance (log10)” value was 0.56. For “CTAATATCTTGGGTTCTAACCTGTTGCAT (site AATGGTCCTTG)”, the “recombinant barcode read abundance (log10)” value was 0.105. In the case of “CTAATATCTTGGGTTCTAACCTGTTGCAT (site CTAATATCTAT)”, the “recombinant barcode read abundance (log10)” value is reported as 1.26. For “CTAATCCCTTGGGTTCTAACCTGTTGCAT (site CATATCCCTAT)”, the “recombinant barcode read abundance (log10)” value was 0.0276. With “CTAATCCCTTGGGTTCTAACCTGTTGCAT (site CTAATCCCTAT)” the “recombinant barcode read abundance (log10)” value was 1.59. In the case of “CTAATGGCTTGGGTTCTAACCTGTTGCCT (site CTAATAGCTAG)”, the “recombinant barcode read abundance (log10)” value is reported as 0.176. For “CTAATGGCTTGGGTTCTAACCTGTTGCCT (site CTAATGGCTAG)”, the “recombinant barcode read abundance (log10)” value was 0.178. In the case of “CTACAACCTTGGGTTCTAACCTGTTGCAG (site CTACAACCTCT)”, the “recombinant barcode read abundance (log10)” value is reported as 2.02. In the case of “CTACAACCTTGGGTTCTAACCTGTTGCAG (site TGGACTACTGA)”, the “recombinant barcode read abundance (log10)” value is reported as 0.25. With “CTACACACTTGGGTTCTAACCTGTTGCTA (site CTACACACTGA)” the “recombinant barcode read abundance (log10)” value was 0.00924. In the case of “CTACACACTTGGGTTCTAACCTGTTGCTA (site CTACACACTTA)”, the “recombinant barcode read abundance (log10)” value is reported as 1.91. In the case of “CTACACCCTTGGGTTCTAACCTGTTGCGA (site CTAAACCCTAC)”, the “recombinant barcode read abundance (log10)” value is reported as 0.0483. For “CTACACCCTTGGGTTCTAACCTGTTGCGA (site CTACACCCTTC)”, the “recombinant barcode read abundance (log10)” value was 2.39. In the case of “CTACATCCTTGGGTTCTAACCTGTTGCTT (site CTACAACCTAA)”, the “recombinant barcode read abundance (log10)” value is reported as 0.00817. With “CTACATCCTTGGGTTCTAACCTGTTGCTT (site CTACACCCTAA)” the “recombinant barcode read abundance (log10)” value was 0.157. In the case of “CTACATCCTTGGGTTCTAACCTGTTGCTT (site CTACAGCCTAA)”, the “recombinant barcode read abundance (log10)” value is reported as 0.0896. For “CTACATCCTTGGGTTCTAACCTGTTGCTT (site CTACATCCTAA)”, the “recombinant barcode read abundance (log10)” value was 1.49. With “CTACCTACTTGGGTTCTAACCTGTTGCGG (site AATATCTCTTG)” the “recombinant barcode read abundance (log10)” value was 0.224. For “CTACCTACTTGGGTTCTAACCTGTTGCGG (site CTACCTACTCC)”, the “recombinant barcode read abundance (log10)” value was 2.72. With “CTACGAACTTGGGTTCTAACCTGTTGCGG (site CTACGAACTCC)” the “recombinant barcode read abundance (log10)” value was 2.17. For “CTACGAACTTGGGTTCTAACCTGTTGCGG (site TGGACCTCTTG)”, the “recombinant barcode read abundance (log10)” value was 0.181. For “CTACGACCTTGGGTTCTAACCTGTTGCAG (site CTACGACCTCT)”, the “recombinant barcode read abundance (log10)” value was 2.56. In the case of “CTACGACCTTGGGTTCTAACCTGTTGCAG (site TACGATACTAC)”, the “recombinant barcode read abundance (log10)” value is reported as 0.186. For “CTACGACCTTGGGTTCTAACCTGTTGCGG (site CTACGACCTCC)”, the “recombinant barcode read abundance (log10)” value was 2.9. With “CTACGACCTTGGGTTCTAACCTGTTGCGG (site TACAAGTCTAG)” the “recombinant barcode read abundance (log10)” value was 0.164. In the case of “CTACGCGCTTGGGTTCTAACCTGTTGCTT (site CTACGCGCTAA)”, the “recombinant barcode read abundance (log10)” value is reported as 0.921. With “CTACGCGCTTGGGTTCTAACCTGTTGCTT (site GTACGCGCTAC)” the “recombinant barcode read abundance (log10)” value was 0.309. In the case of “CTACGGCCTTGGGTTCTAACCTGTTGCGT (site CTACGGCCTAC)”, the “recombinant barcode read abundance (log10)” value is reported as 1.05. In the case of “CTACGGCCTTGGGTTCTAACCTGTTGCGT (site GGACGGCCTAC)”, the “recombinant barcode read abundance (log10)” value is reported as 0.281. In the case of “CTAGACTCTTGGGTTCTAACCTGTTGCAC (site CTAGACTCTAT)”, the “recombinant barcode read abundance (log10)” value is reported as 0.626. For “CTAGACTCTTGGGTTCTAACCTGTTGCAC (site CTAGACTCTCT)”, the “recombinant barcode read abundance (log10)” value was 0.0956. With “CTAGACTCTTGGGTTCTAACCTGTTGCAC (site CTAGACTCTGT)” the “recombinant barcode read abundance (log10)” value was 2.77. For “CTAGACTCTTGGGTTCTAACCTGTTGCAC (site CTAGACTCTTT)”, the “recombinant barcode read abundance (log10)” value was 0.11. For “CTAGACTCTTGGGTTCTAACCTGTTGCAG (site CTAGACTCTAT)”, the “recombinant barcode read abundance (log10)” value was 0.88. For “CTAGACTCTTGGGTTCTAACCTGTTGCAG (site CTAGACTCTCT)”, the “recombinant barcode read abundance (log10)” value was 2.42.
